The record followed here is ChEMBL document CHEMBL5360631, “Creation of a Peptide Antagonist of the GFRAL-RET Receptor Complex for the Treatment of GDF15-Induced Malaise” (J Med Chem, 2023).

Calls of active or inactive are those of the source. The rule behind the calls is not given here. Numbered stars: 1 amine (or outer) side, 2 acyl side, 3 side chain; on linkers, the order of the positions; unused ones are H or OH. Square brackets hold non-standard residues; d marks the D form. Side chains are listed from the residue outwards. Peptide text beside a SMILES is read from it. * marks the point of attachment. X4 = CN1/C(=C/C=C/C=C/C2=[N+](CCCCCC(=O)*)c3ccc(S(=O)(=O)[O-])cc3C2(C)C)C(C)(C)c2cc(S(=O)(=O)O)ccc21; X3 = C[C@@H](O)[C@@H](C(=O)[*:2])N(CCCn1nnc2c1-c1ccccc1CN([*:3])c1ccccc1-2)[*:1]; Biotin = O=C1N[C@H]2[C@H](CS[C@H]2CCCCC(=O)*)N1; GABA = NCCCC(=O)O

Data set [1] has as its target T1, GDNF family receptor alpha-like (Homo sapiens, UniProt Q6UXV0).
T1 sequence (Q6UXV0 whole entry): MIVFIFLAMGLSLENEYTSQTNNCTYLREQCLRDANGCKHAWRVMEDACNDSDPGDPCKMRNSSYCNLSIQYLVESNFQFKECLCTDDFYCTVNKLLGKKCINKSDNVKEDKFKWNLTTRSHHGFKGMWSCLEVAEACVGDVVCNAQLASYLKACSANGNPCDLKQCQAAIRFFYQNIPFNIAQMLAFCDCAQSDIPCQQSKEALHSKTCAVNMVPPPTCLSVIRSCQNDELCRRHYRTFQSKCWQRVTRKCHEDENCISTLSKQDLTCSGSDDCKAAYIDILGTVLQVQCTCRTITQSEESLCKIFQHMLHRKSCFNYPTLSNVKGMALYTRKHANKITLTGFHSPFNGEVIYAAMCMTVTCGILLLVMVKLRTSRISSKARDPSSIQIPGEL
Briefly: Binding affinity to C-terminal polyhis-tagged recombinant human GFRAL (19 to 351 residues) expressed in HEK293 cells assessed as dissociation constant with increasing enzyme concentration by SPR analysis.

Data set [2] relates to Rattus norvegicus. Briefly: Effect on pica behaviour in Sprague-Dawley rat assessed as food intake at 100 nmol/kg, IP measured for 24 hrs in presence of Ondansetron. It is filed as functional.
Data set [3] can be described thus: Toxicity in Sprague-Dawley rat assessed as food intake at 100 nmol/kg, IP measured for 24 hrs. As to conditions: in vivo.
Data set [4] is described as follows: Toxicity in Sprague-Dawley rat assessed as food intake at 30 to 100 nmol/kg, IP measured for 24 hrs. The note with it: in vivo, dose 30-100 nmol/kg.
The nature of data set [5]: Toxicity in Sprague-Dawley rat assessed as kaolin intake at 30 to 100 nmol/kg, IP measured for 24 hrs. As to conditions: in vivo, dose 30-100 nmol/kg.
For data set [6], the system named is Rattus norvegicus. Briefly: Effect on GDF-15-induced anorexia in Sprague-Dawley rat at 30 to 100 nmol/kg pretreated intraperitoneally followed by GDF-15 treatment measured for 24 hrs. As to conditions: dose 30-100 nmol/kg, route ip. It is filed as functional.
In data set [7] the target is T1, GDNF family receptor alpha-like. Briefly: Binding affinity to C-terminal polyhis-tagged recombinant human GFRAL (19 to 351 residues) expressed in HEK293 cells assessed as dissociation constant by SPR analysis.
For data set [8], the system named is Rattus norvegicus. Briefly: Effect on pica behaviour in Sprague-Dawley rat assessed as reduction in GDF-15-induced kaolin intake at 100 nmol/kg pretreated intraperitoneally followed by GDF-15 treatment measured for 24 hrs. It is filed as functional. The note with it: route ip.
Data set [9] can be described thus: Toxicity in Sprague-Dawley rat assessed as drug tolerance at 100 nmol/kg, IP measured for 24 hrs. The note with it: in vivo.
For data set [10], the system named is Rattus norvegicus. Briefly: Effect on pica behaviour in Sprague-Dawley rat assessed as kaolin intake at 100 nmol/kg, IP measured for 24 hrs in presence of Ondansetron. It is filed as functional.
Data set [11] is described as follows: Toxicity in Sprague-Dawley rat assessed as drug tolerance at 100 nmol/kg, IP measured for 24 hrs in presence of Ondansetron. As to conditions: in vivo.
Data set [12] concerns Rattus norvegicus. Briefly: Effect on pica behaviour in Sprague-Dawley rat assessed as reduction in cisplatin-induced kaolin intake at 2 mg/kg, IP measured for 24 hrs. It is filed as functional, organism-based.
The nature of data set [13]: Toxicity in Sprague-Dawley rat assessed as food intake at 300 to 3000 pmol, ICV measured for 24 hrs. As to conditions: in vivo, icv_or_intrathecal, dose 300-3000 pmol.
Data set [14] deals with Rattus norvegicus. Briefly: Effect on GDF-15-induced anorexia in Sprague-Dawley rat at 300 to 3000 pmol pre-treated intracerebroventricularly followed by GDF-15 treatment measured for 24 hrs. It is filed as functional. The note with it: dose 300-3000 pmol, route icv.
A short description of data set [15]: Toxicity in Sprague-Dawley rat assessed as kaolin intake at 300 to 3000 pmol, ICV measured for 24 hrs. As to conditions: in vivo, icv_or_intrathecal, dose 300-3000 pmol.
For data set [16], the system named is Rattus norvegicus. Briefly: Effect on pica behaviour in Sprague-Dawley rat assessed as reduction in cisplatin-induced kaolin intake at 100 nmol/kg, IP bid measured for 24 hrs. It is filed as functional.
For data set [17], the system named is Rattus norvegicus. Briefly: Effect on pica behaviour in Sprague-Dawley rat assessed as food intake at 100 nmol/kg, IP measured for 24 hrs. It is filed as functional.
Data set [18] can be described thus: Toxicity in cisplatin-induced nausea and vomiting Sprague-Dawley rat model assessed as additive effect at 100 nmol/kg, IP bid measured for 24 hrs in presence of Ondansetron. The note with it: in vivo.
Data set [19] relates to Rattus norvegicus. Briefly: Effect on pica behaviour in Sprague-Dawley rat assessed as reduction in cisplatin-induced anorexia at 100 nmol/kg, IP bid measured for 24 hrs in presence of Ondansetron. It is filed as functional.
For data set [20], the system named is Rattus norvegicus. Briefly: Effect on pica behaviour in Sprague-Dawley rat assessed as reduction in GDF-15-induced kaolin intake pretreated intracerebroventricularly followed by GDF-15 treatment measured for 24 hrs. It is filed as functional. The note with it: dose 300-3000 pmol, route icv.
Data set [21] has as its system Rattus norvegicus. Briefly: Effect on pica behaviour in Sprague-Dawley rat assessed as reduction in cisplatin-induced kaolin intake at 100 nmol/kg, IP pretreated for 15 mins followed by cisplatin treatment measured for 6 hrs. It is filed as functional. As to conditions: time 6.25 hrs.
In data set [22] the test system is Rattus norvegicus. Briefly: Effect on pica behaviour in Sprague-Dawley rat assessed as kaolin intake at 100 nmol/kg, IP measured for 24 hrs. It is filed as functional.
Data set [23] is described as follows: Toxicity in Sprague-Dawley rat assessed as kaolin intake at 100 nmol/kg, IP measured for 24 hrs. As to conditions: in vivo.
In data set [24] the target is T1, GDNF family receptor alpha-like. Briefly: Binding affinity to C-terminal polyhis-tagged recombinant human GFRAL (19 to 351 residues) expressed in HEK293 cells assessed as dissociation constant by flow cytometric analysis. It is filed as cell-based.

Turning to `CC[C@H](C)[C@H](NC(=O)[C@H](CC(C)C)NC(=O)[C@H](CCC(=O)O)NC(=O)[C@H](CCC(=O)O)NC(=O)[C@H](CCCCN)NC(=O)[C@@H](NC(=O)CCCC[C@@H]1SC[C@@H]2NC(=O)N[C@@H]21)[C@@H](C)O)C(=O)N[C@@H](Cc1c[nH]cn1)C(=O)N[C@@H](C)C(=O)N[C@@H](Cc1c[nH]cn1)C(=O)N[C@@H](C)C(=O)N[C@@H](CC(=O)O)C(=O)N1CCC[C@H]1C(=O)N[C@@H](CCSC)C(=O)N[C@H](C(=O)N[C@@H](CC(C)C)C(=O)N[C@H](C(=O)N[C@@H](CCC(N)=O)C(=O)N[C@@H](CCCCN)C(=O)N[C@H](C(=O)N[C@@H](CC(=O)O)C(=O)N[C@H](C(=O)NCC(=O)N[C@H](C(=O)N[C@@H](CO)C(=O)N[C@@H](CC(C)C)C(=O)N[C@@H](CCC(N)=O)C(=O)N[C@H](C(=O)N[C@@H](Cc1ccc(O)cc1)C(=O)N[C@@H](CC(=O)O)C(=O)O)[C@@H](C)O)C(C)C)[C@@H](C)O)[C@@H](C)O)[C@@H](C)CC)C(C)C` (Biotin-TKEELIHAHADPMVLIQKTDTGVSLQTYD-OH), in [1], the Kd turned out to be 74.1 nM.
With `CC[C@H](C)[C@H](NC(=O)[C@H](CC(C)C)NC(=O)[C@H](CCC(=O)O)NC(=O)[C@H](CCC(=O)O)NC(=O)[C@H](CCCCN)NC(=O)[C@@H](N)[C@@H](C)O)C(=O)N[C@@H](Cc1c[nH]cn1)C(=O)N[C@@H](C)C(=O)N[C@@H](Cc1c[nH]cn1)C(=O)N[C@@H](C)C(=O)N[C@@H](CC(=O)O)C(=O)N1CCC[C@H]1C(=O)N[C@@H](CCSC)C(=O)N[C@H](C(=O)N[C@@H](CC(C)C)C(=O)N[C@H](C(=O)N[C@@H](CCC(N)=O)C(=O)N[C@@H](CCCCN)C(=O)N[C@H](C(=O)N[C@@H](CC(=O)O)C(=O)N[C@H](C(=O)NCC(=O)N[C@H](C(=O)N[C@@H](CO)C(=O)N[C@@H](CC(C)C)C(=O)N[C@@H](CCC(N)=O)C(=O)N[C@H](C(=O)N[C@@H](Cc1ccc(O)cc1)C(=O)N[C@@H](CC(=O)O)C(=O)O)[C@@H](C)O)C(C)C)[C@@H](C)O)[C@@H](C)O)[C@@H](C)CC)C(C)C` (H-TKEELIHAHADPMVLIQKTDTGVSLQTYD-OH), the result in the data set on Rattus norvegicus [2], with Rattus norvegicus [6], with Rattus norvegicus [10], in the data set on Rattus norvegicus [14], with Rattus norvegicus [17] and in the data set with Rattus norvegicus [22] was inactive. Moreover, the Activity entry in data set [3], in data set [4], in [5], in data set [9], in [11] and in [13] was “Non-Toxic” in each case. The Activity result in data set [15], in data set [18] and in data set [23] was “Non-Toxic” in each case. Further, the Kd in data set [7] stood at 179000 nM. In addition, the outcome in the data set on Rattus norvegicus [8], in the data set with Rattus norvegicus [12], in the data set with Rattus norvegicus [16], with Rattus norvegicus [19], in the data set with Rattus norvegicus [20] and with Rattus norvegicus [21] was Active.
Turning to `CC[C@H](C)[C@H](NC(=O)[C@H](CC(C)C)NC(=O)[C@H](CCC(=O)O)NC(=O)[C@H](CCC(=O)O)NC(=O)[C@H](CCCCN)NC(=O)[C@@H](NCCCn1nnc2c1-c1ccccc1CN(C(=O)CCCNC(=O)CCCCC[N+]1=C(/C=C/C=C/C=C3/N(C)c4ccc(S(=O)(=O)O)cc4C3(C)C)C(C)(C)c3cc(S(=O)(=O)[O-])ccc31)c1ccccc1-2)[C@@H](C)O)C(=O)N[C@@H](Cc1c[nH]cn1)C(=O)N[C@@H](C)C(=O)N[C@@H](Cc1c[nH]cn1)C(=O)N[C@@H](C)C(=O)N[C@@H](CC(=O)O)C(=O)N1CCC[C@H]1C(=O)N[C@@H](CCSC)C(=O)N[C@H](C(=O)N[C@@H](CC(C)C)C(=O)N[C@H](C(=O)N[C@@H](CCC(N)=O)C(=O)N[C@@H](CCCCN)C(=O)N[C@H](C(=O)N[C@@H](CC(=O)O)C(=O)N[C@H](C(=O)NCC(=O)N[C@H](C(=O)N[C@@H](CO)C(=O)N[C@@H](CC(C)C)C(=O)N[C@@H](CCC(N)=O)C(=O)N[C@H](C(=O)N[C@@H](Cc1ccc(O)cc1)C(=O)N[C@@H](CC(=O)O)C(=O)O)[C@@H](C)O)C(C)C)[C@@H](C)O)[C@@H](C)O)[C@@H](C)CC)C(C)C` (H-[X3]([GABA-X4])KEELIHAHADPMVLIQKTDTGVSLQTYD-OH), the Kd in [24] came to 8.98 nM.
